Assay results reported in publication PMC12214536 (Nature Communications, 2025).

Test system: A. fumigatus OE::sltA
Assay type: cell-based, Aspergillus fumigatus

caspofungin was tested, and the “susceptibility of the sltA overexpression strain compared to wild-type” value was “comparable susceptibility to CAS”.

With colistin the “more tolerance of the sltA overexpression strain compared to wild-type” value was 15%.
